What is called Vd is a proportionality between amount in the body and measured concentration, not a real space. A word on the half-life: it is the time needed for the level to fall by half in the phase considered. A low value points to fast loss. For orientation: AUC(0-t) means exposure summed from dosing to a finite time, without extrapolation to infinity. A high value points to high exposure. One may read the Cmax as the highest concentration seen after dosing. In general, Tmax refers to the time at which the peak concentration occurs.

Where a SMILES comes first, the peptide text is derived from it. Bridges are numbered along the chain shown (N, C = ends). [ ]: non-standard residue; d: D form. The star is where a group is joined. X1 = NC[C@@H](CC(=O)*)c1cccc(Cl)c1; Dab = NCC[C@H](N)C(=O)O; Dap = NC[C@H](N)C(=O)O

We go through one compound from paper PMC10353446, “Pharmacokinetics of SPR206 in Plasma, Pulmonary Epithelial Lining Fluid, and Alveolar Macrophages following Intravenous Administration to Healthy Adult Subjects” (Antimicrobial Agents and Chemotherapy, 2023).

One series is described as follows: clinical. The following applies: human, in vivo, iv, 100 mg. The method, then:
(§1) This was a Phase 1, single-center, multiple-dose, open-label PK study in healthy adult male and female subjects. Subjects received three 100 mg doses of SPR206 administered q8h as a 1-h IV infusion. Three consecutive doses were sufficient to achieve steady-state based on a previous Phase 1 study in healthy subjects ([36]). A screening evaluation to determine eligibility for enrollment into the study was performed within 28 days of initial dosing. Subjects who met inclusion and exclusion criteria returned to the study unit 1 day before dosing (Day -1). Subjects who met inclusion and exclusion criteria were confined to the study site from Day -1 (1 day prior to start of dosing) and remained in the study site through completion of all scheduled procedures including collection of the last PK sample and bronchoscopy procedures along with safety evaluations (Day 2). Each subject underwent 1 bronchoscopy with BAL at 2, 3, 4, 6, or 8 h after the start of the third IV infusion. Subjects were required to return for a follow-up visit on Day 7 (+2 days) after discharge from the study site. The maximum duration of participation for each subject was up to 39 days (up to 28 days for Screening, 2 days of confinement, and up to 9 days for follow-up).
Blood samples for determining SPR206 plasma concentrations were collected within 60 min pre-dose (0 h) prior to second and third doses of SPR206 only and at 2, 3, 4, 6, and 8 h after the start of the third dose of SPR206.
Concentrations of SPR206 in plasma were determined by a validated liquid chromatography with tandem mass spectrometry (LC-MS/MS) assay performed at QPS, LLC. For plasma, the assay range was 50 to 50,000 ng/mL. In plasma, intraday precision (% coefficient of variation) ranged from 1.3% to 7.7%, and accuracy (% relative error) ranged from -1.2% to 9.5%. Interday precision ranged from 2.9% to 5.3% and accuracy ranged from 1.6% to 6.0%.
PK analysis of SPR206 plasma concentrations was determined with noncompartmental PK analysis using Phoenix WinNonlin software (version 8.3, Certara Inc.). PK parameters were Tmax, Cmax, Cmin, and AUC0-8.
Actual BAL samples were collected outside the protocol-specified sampling time windows. Thus, an updated method was utilized where the PK parameters for ELF or AM were calculated from composite concentration profiles of ELF or AM, respectively, based on the 27 subjects in the BAL PK population. Some blood samples were collected outside of the planned sampling windows, and therefore, individual plasma AUC0-8 was calculated first and the mean population plasma AUC0-8 was derived from all individual AUC0-8 values.
Concentrations of SPR206 were summarized separately for plasma, ELF, and AM by nominal time point using descriptive statistics. The mean concentrations of SPR206 in BAL fluid obtained at the different BAL fluid sampling times (e.g., 2, 3, 4, 6, and 8 h) were used to estimate the AUC0-8 for SPR206 in plasma, ELF, and AM. The concentration at the final sampling time (8 h) also served as the time zero value for determining the AUC0-8 value of each matrix using Phoenix WinNonlin software (version 8.3, Certara Inc.). The ratios of the AUC0-8 of ELF or AM to the AUC0-8 of plasma (total and unbound) were calculated. Plasma protein binding analyses were not conducted as part of this study. The value used for the unbound fraction of SPR206 in plasma was 0.914 (Spero Therapeutics, Inc., data on file). The measured concentrations in ELF and AM represented unbound concentrations, since only unbound plasma fractions are considered to penetrate the lung compartments. Individual plasma concentration-time profile versus time and arithmetic mean concentration (±SD) versus time plots were presented for the concentration-time data.

For series [1] the following is noted: cited from earlier work.
The nature of series [2]: Safety and tolerability in healthy subjects (Phase 1 BAL study). The class given is in vivo, human. The method, then: as §1
Subjects were continuously monitored during the bronchoscopy. Vital signs (blood pressure, heart rate, and respiratory rate) were recorded prior to the scheduled bronchoscopy time and at 15 min and 1 h following the end of bronchoscopy. Subjects were kept under observation for 2 to 3 h post-bronchoscopy for safety evaluations. Continuous pulse oximetry was conducted from the beginning of preparation of the subject for bronchoscopy until the post-procedure oxygen saturation was at least 93% on room air. Pulse oximetry was extended if a clinically significant increase in heart rate or cardiac rhythm abnormalities were detected. Other safety assessments included physical examinations, clinical laboratory monitoring (hematology, blood chemistry, and urinalysis), 12-lead ECG, and adverse event recording.

In “clinical” (both sexes), `CC(C)C[C@@H]1NC(=O)[C@@H](Cc2ccccc2)NC(=O)[C@H](CCN)NC(=O)[C@@H](NC(=O)[C@H](CN)NC(=O)[C@@H](NC(=O)C[C@H](CN)c2cccc(Cl)c2)[C@@H](C)O)CCNC(=O)[C@H]([C@@H](C)O)NC(=O)[C@H](CCN)NC(=O)[C@H](CCN)NC1=O` [SPR206] (X1-T[Dap][Dab][Dab][dF]L[Dab][Dab]T; lactam 3-C (inferred)) yielded a Vd of 19.8 L. Moreover, the half-life in “clinical” (both sexes) is 3.6 h. Moreover, in the series “clinical” (both sexes, AUC0-8, geometric mean (CV%)), the AUC(0-t) stood at 19800 ng·h/mL. Further, the Cmax was found to be 4400 ng/mL in the series “clinical” (both sexes, arithmetic mean (SD)) and 4300 ng/mL in “clinical” (both sexes, geometric mean (CV%)). Also, the Tmax is 2 h in “clinical” (both sexes, Median time to peak plasma concentrations (Tmax)); 1.8 to 2.9 h in “clinical” (both sexes, Tmax range); 2.1 h in the series “clinical” (both sexes, Tmax, arithmetic mean (SD)); 2.1 h in the series “clinical” (both sexes, Tmax, geometric mean (CV%)). Also, the “AUC0-8, geometric mean (CV%)” value in “clinical” (both) is reported as 19817.9 (17.9) h*ng/mL. In the series “clinical” (both), the “Cmax, geometric mean (CV%)” value is recorded as 4333.4 (17.2) ng/mL. The “t1/2, geometric mean (CV%)” value in “clinical” (both) is given as 3.6 (13.5) hours. Moreover, the “Vz, geometric mean (CV%)” value in the series “clinical” is 19502.1 (18.1) mL. Moreover, the “Unbound fraction in plasma” value in series [1] is on record as 0.914. In addition, in series [2] (100 mg IV q8h x 3 doses), the “Deaths, serious AEs, AEs leading to discontinuation” value is recorded as “No deaths, serious AEs, or AEs leading to study drug discontinuation or study discontinuation were reported”. The “TEAEs reported as mild in severity (of 40 reported TEAEs)” value in series [2] (human, in vivo, iv) was determined as 85.0%. The “Clinical laboratory parameters including blood urea nitrogen, serum creatinine, estimated creatinine clearance” value in series [2] (human, in vivo, iv, 100 mg) is recorded as “No clinically significant abnormalities”.
